These are literature values, as cited in patent US20050255458A1, “Drug discovery assays based on the biology of chronic disease” (priority 2002, published 2005).

For data set [1] the following is noted: cited from earlier work.
For data set [2], the system named is GABP. The conditions noted are these: cited from earlier work; for GABP DNA binding activity, treated nuclear extracts: 3T3 nuclear extracts, DTT on extracts of DEM-treated cells, GSSG 5 mM.
Data set [3] deals with NOD mice. The conditions noted are these: mouse, in vivo; cited from earlier work.
Data set [4] relates to hair follicles (onset of anagen). The conditions noted are these: cited from earlier work.
In data set [5] the test system is TF. The conditions noted are these: cited from earlier work.
For data set [6], the system named is Elk-1. The conditions noted are these: Peterziel 1999; cited from earlier work.
The subject of data set [7] is TF. The conditions noted are these: dose-dependent; cited from earlier work.
The subject of data set [8] is TF antigen. The conditions noted are these: starting on day 3, significant on day 28; cited from earlier work.
Data set [9] deals with metallothionein (MT). The conditions noted are these: OC15 EC, OC15 END cells; cited from earlier work.
Data set [10] deals with T1, ACE (Mus musculus, UniProt P09470).
T1 sequence (P09470 35-1312): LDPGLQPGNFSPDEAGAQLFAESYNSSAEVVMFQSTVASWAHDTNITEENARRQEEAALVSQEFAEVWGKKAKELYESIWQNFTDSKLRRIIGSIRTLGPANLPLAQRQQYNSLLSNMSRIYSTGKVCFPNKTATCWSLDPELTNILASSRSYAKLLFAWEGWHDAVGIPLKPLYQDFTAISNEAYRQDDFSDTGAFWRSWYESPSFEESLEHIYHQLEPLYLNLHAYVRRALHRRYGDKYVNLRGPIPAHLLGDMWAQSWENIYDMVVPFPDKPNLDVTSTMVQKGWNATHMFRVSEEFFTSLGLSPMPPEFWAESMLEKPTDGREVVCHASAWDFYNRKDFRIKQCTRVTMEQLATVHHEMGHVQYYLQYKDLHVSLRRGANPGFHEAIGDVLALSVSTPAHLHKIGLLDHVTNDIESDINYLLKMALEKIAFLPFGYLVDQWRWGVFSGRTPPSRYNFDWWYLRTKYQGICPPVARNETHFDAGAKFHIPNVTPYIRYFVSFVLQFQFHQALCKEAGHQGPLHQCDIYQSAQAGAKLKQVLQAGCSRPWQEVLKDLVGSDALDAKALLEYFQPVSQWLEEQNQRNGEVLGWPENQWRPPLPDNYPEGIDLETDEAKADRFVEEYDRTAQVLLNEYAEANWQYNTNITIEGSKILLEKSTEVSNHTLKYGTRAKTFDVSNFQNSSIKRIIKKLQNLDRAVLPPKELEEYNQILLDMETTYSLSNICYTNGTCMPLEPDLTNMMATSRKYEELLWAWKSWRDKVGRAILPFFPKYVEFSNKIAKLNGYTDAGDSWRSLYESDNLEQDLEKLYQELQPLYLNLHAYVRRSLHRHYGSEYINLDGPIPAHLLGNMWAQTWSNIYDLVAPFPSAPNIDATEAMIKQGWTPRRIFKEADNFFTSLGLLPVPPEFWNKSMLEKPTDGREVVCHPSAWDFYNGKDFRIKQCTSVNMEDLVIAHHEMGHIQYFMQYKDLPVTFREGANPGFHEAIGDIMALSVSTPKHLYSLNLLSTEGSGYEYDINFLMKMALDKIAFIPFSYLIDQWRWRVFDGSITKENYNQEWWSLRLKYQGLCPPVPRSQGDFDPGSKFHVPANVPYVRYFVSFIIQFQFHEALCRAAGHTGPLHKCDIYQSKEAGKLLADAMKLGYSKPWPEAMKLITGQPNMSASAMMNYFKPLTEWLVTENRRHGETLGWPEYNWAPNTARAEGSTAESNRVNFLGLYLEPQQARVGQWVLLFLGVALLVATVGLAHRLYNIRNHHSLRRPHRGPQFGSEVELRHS
The conditions noted are these: cited from earlier work.

In data set [11] the target is T2, ACE (Oryctolagus cuniculus, UniProt P12822).
T2 construct: from tissue; host or cells: whole animal, in vivo (Watanabe rabbit)
T2 sequence (P12822 34-1310): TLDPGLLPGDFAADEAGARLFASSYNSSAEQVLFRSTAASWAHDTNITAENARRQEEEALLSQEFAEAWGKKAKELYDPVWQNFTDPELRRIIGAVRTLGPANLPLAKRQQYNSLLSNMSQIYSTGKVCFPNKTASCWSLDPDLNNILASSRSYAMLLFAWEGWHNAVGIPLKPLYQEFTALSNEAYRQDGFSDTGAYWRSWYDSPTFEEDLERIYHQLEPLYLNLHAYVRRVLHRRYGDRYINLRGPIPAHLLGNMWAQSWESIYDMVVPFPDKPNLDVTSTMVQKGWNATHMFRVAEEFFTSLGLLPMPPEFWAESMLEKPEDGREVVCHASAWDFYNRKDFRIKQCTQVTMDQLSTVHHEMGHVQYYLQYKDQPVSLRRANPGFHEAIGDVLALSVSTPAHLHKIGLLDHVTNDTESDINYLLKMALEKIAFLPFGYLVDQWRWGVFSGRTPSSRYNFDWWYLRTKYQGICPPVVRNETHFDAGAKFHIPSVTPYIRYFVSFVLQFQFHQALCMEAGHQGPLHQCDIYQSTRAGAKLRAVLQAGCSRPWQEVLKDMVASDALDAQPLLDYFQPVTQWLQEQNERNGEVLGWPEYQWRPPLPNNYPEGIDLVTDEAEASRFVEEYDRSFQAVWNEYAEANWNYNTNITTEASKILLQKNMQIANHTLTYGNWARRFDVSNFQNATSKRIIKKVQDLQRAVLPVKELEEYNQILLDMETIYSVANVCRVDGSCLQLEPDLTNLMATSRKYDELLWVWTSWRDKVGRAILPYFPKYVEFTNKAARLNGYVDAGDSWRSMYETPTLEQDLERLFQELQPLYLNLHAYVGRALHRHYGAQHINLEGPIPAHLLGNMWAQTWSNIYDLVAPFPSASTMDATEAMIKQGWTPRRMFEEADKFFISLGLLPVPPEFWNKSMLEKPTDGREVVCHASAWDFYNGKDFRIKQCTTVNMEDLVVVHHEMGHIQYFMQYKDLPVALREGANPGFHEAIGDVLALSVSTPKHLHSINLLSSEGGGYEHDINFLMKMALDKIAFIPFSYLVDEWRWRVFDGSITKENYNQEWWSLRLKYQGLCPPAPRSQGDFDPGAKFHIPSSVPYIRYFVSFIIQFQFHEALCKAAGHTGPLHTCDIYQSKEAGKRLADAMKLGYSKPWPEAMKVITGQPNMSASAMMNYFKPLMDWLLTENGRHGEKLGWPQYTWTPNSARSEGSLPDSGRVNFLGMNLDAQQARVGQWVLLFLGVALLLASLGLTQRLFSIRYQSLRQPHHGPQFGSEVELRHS
The conditions noted are these: cited from earlier work.

Data set [12] deals with ERK. The conditions noted are these: cited from earlier work.
Data set [13] deals with AR gene. Conditions: LNCaP; cited from earlier work.
In data set [14] the test system is AChRδ and AChRε genes. The conditions noted are these: cited from earlier work.
Data set [15] has as its system ERK1/2. The conditions noted are these: cited studies, various cells; cited from earlier work.
Data set [16] concerns TF. Conditions: cited from earlier work. This is another data set of the same source.

Read-outs that look alike come from different tables or passages of the source.

Take `CN(N=O)C(=O)N[C@H]1C(O)O[C@H](CO)[C@@H](O)[C@@H]1O` (mixture of isomers) [STZ, streptozotocin]: the “increase in ratio of liver weight to body weight” value is on record as 12% in data set [1] (8 days after injection) and 44% in data set [1] (30 days). For the same compound, the figures for the hepatocyte mitosis in data set [1] (8 days) and in data set [1] (90 days) were 300 % of normal and 25 % of normal, respectively.
With `O[C@H](CS)[C@H](O)CS` (racemic) [DTT, dithiothreitol], in data set [2], the “GABP DNA binding activity, treated nuclear extracts” value is “restored GABP binding activity”.
Regarding `O=C(O)CCCC[C@@H]1CCSS1` (racemic) [lipoic acid], the insulitis and diabetes entry in data set [3] is “decreased insulitis and delayed diabetes”.
Consider `C[C@]12CC[C@@H]3c4ccc(O)cc4CC[C@H]3[C@@H]1CC[C@@H]2O` [17β-estradiol], for which, in [4] (topical 10 nmol twice weekly, female CD-1 mice), the “delay in hair regrowth” value is “indefinite delay”. Besides, the hair growth entry in [4] (topical application (Chanda 2000)) was “decreased hair growth”.
In the case of `CC(=O)N[C@@H](CS)C(=O)O` [NAC, N-Acetylcysteine], the “GABP DNA binding activity (EMSA)” value in data set [2] (3T3 cells treated 2 h, single and double N-box probes) was “prevented”. The TF activity entry in data set [5] (cells incubated with AGE-alb, 30 mmol/L) is reported as “concentration dependent inhibition of TF activity”. Besides, in [5], the “AGE-alb induced TF mRNA” value is given as “almost completely suppressed”.
For the compound `CCNc1cccnc1N1CCN(CC2(C)CCc3c(C)c(O)c(C)c(C)c3O2)CC1.Cl` (stereo not shown) [U78518F], the insulitis and diabetes entry in data set [3] was “decreased insulitis and delayed diabetes”.
In the case of `CC(O)(CS(=O)(=O)c1ccc(F)cc1)C(=O)Nc1ccc(C#N)c(C(F)(F)F)c1` (stereo not shown) [casodex], the Elk-1 transcription activity result in data set [6] is “increase in Elk-1 transcription activity”.
In the case of `CC(C)(O)C(=O)Nc1ccc([N+](=O)[O-])c(C(F)(F)F)c1` [hydroxyflutamide], the Elk-1 transcription activity result in data set [6] was “increase in Elk-1 transcription activity”.
As for `CN(CC(=O)NO)C(=O)[C@@H]1CCCC[C@@H]1C(=O)O` [idrapril], in data set [7], the TF activity result is “decreased TF activity”.
As for `CCCCc1nc(Cl)c(CO)n1Cc1ccc(-c2ccccc2-c2nn[nH]n2)cc1` [losartan], the “plasma TF antigen levels” value in [8] is reported as “negative effect on plasma TF antigen levels”.
As for `NC(=O)c1cccnc1` [nicotinamide], the insulitis and diabetes result in data set [3] is “decreased insulitis and delayed diabetes”.
Take `CC(=O)[O-].[Na+]` [sodium acetate]: in [9], the “MT mRNA levels” value is “no effect”.
Consider `CCC(=O)[O-].[Na+]` [sodium propionate], for which the “MT mRNA levels” value in data set [9] is recorded as “no effect”.
`C[C@H](CSC(=O)c1ccccc1)C(=O)N1C[C@@H](Sc2ccccc2)C[C@H]1C(=O)O` [zofenopril]: in [10] (1 mg/kg/day), the “macrophage-derived foam cells staining in the intima” value is on record as “significant decrease in macrophage-derived foam cells staining” and the “native LDL staining in the intima” value is “significant decrease in native LDL staining”. Also, the “total lesion area compared to placebo” value in data set [10] (zofenopril 0.05 or 1, captopril 5, enalapril 0.5 mg/kg/day, 29 weeks) is “significantly decreased total lesion area”. In addition, in [11] (0.5 mg/kg/day, 6 weeks), the “decrease of aortic corrected cumulative lesion area” value was 34% and the “decrease of common carotid corrected cumulative lesion area” value is given as 39%. Further, the “intimal presence of native LDL” value in data set [11] (p<0.01 vs placebo) is on record as “decreased”. Moreover, the “intimal presence of macrophage derived foam cells” value in data set [11] (p<0.05 vs placebo) is on record as “decreased”.
As to EGF: EGF, an ERK agent, the “Effect on [ERK^phos]” value in [12] (DU145) was “↑[ERK^Phos]”; in [12] (LNCaP) it was “↑[ERK^phos]”; in data set [12] (PC-3), “↑[ERK^phos]”. The Elk-1 transcription activity entry in [6] is “Elk-1 activation”. Further, in data set [13], the “Effect on [mRNAAR]” value was “↓[mRNAAR]”.
heregulin: the “increase in GABPα protein level” value in data set [14] (Western blot, treated vs untreated cells) is 2 fold. In addition, the “phosphorylation of GABPα and GABPβ” value in data set [14] (chick primary myotubes) is on record as “increased phosphorylation”. For the same compound, in data set [14], the “transcription of AChRδ and AChRε genes” value is “increased transcription”; the transcription of utrophin entry was “stimulated transcription”. Moreover, the “phosphorylation of ERK1/2” value in data set [15] is on record as “phosphorylation of ERK1/2”.
For the compound oxidized glutathione [GSSG], the “GABP DNA binding activity, treated nuclear extracts” value in data set [2] is “nearly abolished GABP DNA binding”.
Take vitamin E: the “effect on LPS induced TF expression” value in data set [16] is listed as “inhibited the LPS induced expression”. In data set [16] (probucol 20, vitamin E 50, BHT 50, U74389G 20 μmol/L), the “effect on Cu^+2 induced procoagulant activity” value was “inhibited the Cu^+2 induced procoagulant activity”. In data set [3], the insulitis and diabetes result is “decreased insulitis and delayed diabetes”.
